{"source": "paper PMC9516332", "about": "(Frontiers in Oncology, 2022)", "key": {"[1]": {"tested_on": "134 cancer cell lines", "assay": "Cell viability assay (ATPlite, 72 hours), IC50 on cancer cell line panel"}, "[2]": {"tested_on": "134 cancer cell lines"}}, "note": "Read-outs that look alike come from different tables or passages of the source."}
{"smiles": "CCN1CCN(c2ccc(Nc3cc(N(C)C(=O)Nc4c(Cl)c(OC)cc(OC)c4Cl)ncn3)cc2)CC1", "note": "[infigratinib]", "values": [{"measurement": "IC50", "setting": "[1]; Homo sapiens, MV4-11, read-out: IC50 in cell proliferation assay, MV4-11 cell line (FLT3 ITD)", "result": 2.57, "unit": "µM"}, {"measurement": "IC50", "setting": "[1]; Homo sapiens, MeWo, read-out: IC50 in cell proliferation assay, MeWo cell line", "result": "> 3.16", "unit": "µM"}, {"measurement": "IC50", "setting": "[1]; Homo sapiens, NCCIT, read-out: IC50 in cell proliferation assay, NCC-IT cell line", "result": 0.466, "unit": "µM"}, {"measurement": "IC50", "setting": "[1]; Homo sapiens, NCI-H82, read-out: IC50 in cell proliferation assay, cell line NCI-H82", "result": "> 3.16", "unit": "µM"}, {"measurement": "IC50", "setting": "[1]; Homo sapiens, NCI-H460, read-out: IC50 in cell proliferation assay, NCI-H460 cell line", "result": "> 3.16", "unit": "µM"}, {"measurement": "IC50", "setting": "[1]; Homo sapiens, NCI-H661, read-out: IC50 in cell proliferation assay, NCI-H661 cell line", "result": "> 3.16", "unit": "µM"}, {"measurement": "IC50", "setting": "[1]; Homo sapiens, NCI-H716, read-out: IC50 in cell proliferation assay, cell line NCI-H716 (FGFR2-COL14A1)", "result": 0.02, "unit": "µM"}, {"measurement": "IC50", "setting": "[1]; Homo sapiens, NCI-H1650, read-out: IC50 in cell proliferation assay, NCI-H1650 cell line (EGFR exon19del)", "result": 5.09, "unit": "µM"}, {"measurement": "IC50", "setting": "[1]; Homo sapiens, NCI-H1975, read-out: IC50 in cell proliferation assay, NCI-H1975 cell line (EGFR p.L858R + p.T790M)", "result": "> 3.16", "unit": "µM"}, {"measurement": "IC50", "setting": "[1]; Homo sapiens, NCI-H2228, read-out: IC50 in cell proliferation assay, NCI-H2228 cell line (EML4-ALK)", "result": 4.38, "unit": "µM"}, {"measurement": "IC50", "setting": "[1]; Homo sapiens, OVCAR-3, read-out: IC50 in cell proliferation assay, cell line OVCAR-3", "result": "> 3.16", "unit": "µM"}, {"measurement": "IC50", "setting": "[1]; Homo sapiens, PFSK-1, read-out: IC50 in cell proliferation assay, cell line PFSK-1", "result": "> 3.16", "unit": "µM"}, {"measurement": "IC50", "setting": "[1]; Homo sapiens, RL95-2, read-out: IC50 in cell proliferation assay, cell line RL95-2 (EGFR p.A289V)", "result": "> 3.16", "unit": "µM"}, {"measurement": "IC50", "setting": "[1]; Homo sapiens, RPMI-7951, read-out: IC50 in cell proliferation assay, cell line RPMI-7951 (BRAF p.V600E)", "result": "> 3.16", "unit": "µM"}, {"measurement": "IC50", "setting": "[1]; Homo sapiens, RS4-11, read-out: IC50 in cell proliferation assay, cell line RS4;11", "result": "> 3.16", "unit": "µM"}, {"measurement": "IC50", "setting": "[1]; Homo sapiens, Rec1, read-out: IC50 in cell proliferation assay, cell line REC-1", "result": 4, "unit": "µM"}, {"measurement": "IC50", "setting": "[1]; Homo sapiens, SHP77, read-out: IC50 in cell proliferation assay, cell line SHP-77", "result": "> 3.16", "unit": "µM"}, {"measurement": "IC50", "setting": "[1]; Homo sapiens, SK-BR-3, read-out: IC50 in cell proliferation assay, cell line SK-BR-3 (ERBB2 amplification)", "result": "> 3.16", "unit": "µM"}, {"measurement": "IC50", "setting": "[1]; Homo sapiens, SK-N-AS, read-out: IC50 in cell proliferation assay, cell line SK-N-AS", "result": "> 3.16", "unit": "µM"}, {"measurement": "IC50", "setting": "[1]; Homo sapiens, SK-N-FI, read-out: IC50 in cell proliferation assay, cell line SK-N-FI", "result": "> 3.16", "unit": "µM"}, {"measurement": "IC50", "setting": "[1]; Homo sapiens, SK-N-MC, read-out: IC50 in cell proliferation assay, cell line SK-N-MC", "result": 3.21, "unit": "µM"}, {"measurement": "IC50", "setting": "[1]; Homo sapiens, SK-N-SH, read-out: IC50 in cell proliferation assay, cell line SK-N-SH (ALK p.F1174L)", "result": 4.47, "unit": "µM"}, {"measurement": "IC50", "setting": "[1]; Homo sapiens, SNU-5, read-out: IC50 in cell proliferation assay, cell line SNU-5 (MET amplification)", "result": "> 3.16", "unit": "µM"}, {"measurement": "IC50", "setting": "[1]; Homo sapiens, SNU-16, read-out: IC50 in cell proliferation assay, cell line SNU-16 (FGFR2 amplification)", "result": 0.028, "unit": "µM"}, {"measurement": "IC50", "setting": "[1]; Homo sapiens, SNU-C2B, read-out: IC50 in cell proliferation assay, cell line SNU-C2B (EGFR p.R165Q)", "result": "> 3.16", "unit": "µM"}, {"measurement": "IC50", "setting": "[1]; Homo sapiens, SU-DHL-1, read-out: IC50 in cell proliferation assay, cell line SU-DHL-1 (NPM1-ALK)", "result": "> 3.16", "unit": "µM"}, {"measurement": "IC50", "setting": "[1]; Homo sapiens, SU-DHL-6, read-out: IC50 in cell proliferation assay, cell line SU-DHL-6", "result": "> 3.16", "unit": "µM"}, {"measurement": "IC50", "setting": "[1]; Homo sapiens, SUP-T1, read-out: IC50 in cell proliferation assay, cell line SUP-T1", "result": "> 3.16", "unit": "µM"}, {"measurement": "IC50", "setting": "[1]; Homo sapiens, SW48, read-out: IC50 in cell proliferation assay, cell line SW48 (EGFR p.G719S)", "result": "> 3.16", "unit": "µM"}, {"measurement": "IC50", "setting": "[1]; Homo sapiens, SW480, read-out: IC50 in cell proliferation assay, cell line SW480", "result": "> 3.16", "unit": "µM"}, {"measurement": "IC50", "setting": "[1]; Homo sapiens, SW626, read-out: IC50 in cell proliferation assay, cell line SW626", "result": "> 3.16", "unit": "µM"}, {"measurement": "IC50", "setting": "[1]; Homo sapiens, SW780, read-out: IC50 in cell proliferation assay, cell line SW780 (FGFR3-BAIAP2L1)", "result": 0.039, "unit": "µM"}, {"measurement": "IC50", "setting": "[1]; Homo sapiens, SW837, read-out: IC50 in cell proliferation assay, cell line SW837", "result": "> 3.16", "unit": "µM"}, {"measurement": "IC50", "setting": "[1]; Homo sapiens, SW872, read-out: IC50 in cell proliferation assay, cell line SW872 (BRAF p.V600E)", "result": "> 3.16", "unit": "µM"}, {"measurement": "IC50", "setting": "[1]; Homo sapiens, SW900, read-out: IC50 in cell proliferation assay, cell line SW900", "result": "> 3.16", "unit": "µM"}, {"measurement": "IC50", "setting": "[1]; Homo sapiens, SW948, read-out: IC50 in cell proliferation assay, cell line SW948", "result": "> 3.16", "unit": "µM"}, {"measurement": "IC50", "setting": "[1]; Homo sapiens, SW982, read-out: IC50 in cell proliferation assay, cell line SW982 (BRAF p.V600E)", "result": "> 3.16", "unit": "µM"}, {"measurement": "IC50", "setting": "[1]; Homo sapiens, SW-620, read-out: IC50 in cell proliferation assay, cell line SW620", "result": "> 3.16", "unit": "µM"}, {"measurement": "IC50", "setting": "[1]; Homo sapiens, T98G, read-out: IC50 in cell proliferation assay, cell line T98G", "result": 0.135, "unit": "µM"}, {"measurement": "IC50", "setting": "[1]; Homo sapiens, TCC-SUP, read-out: IC50 in cell proliferation assay, cell line TCCSUP", "result": "> 3.16", "unit": "µM"}, {"measurement": "IC50", "setting": "[1]; Homo sapiens, THP-1, read-out: IC50 in cell proliferation assay, cell line THP-1", "result": "> 3.16", "unit": "µM"}, {"measurement": "IC50", "setting": "[1]; Homo sapiens, U2OS, read-out: IC50 in cell proliferation assay, cell line U2OS", "result": "> 3.16", "unit": "µM"}, {"measurement": "IC50", "setting": "[1]; Homo sapiens, U-87 MG, read-out: IC50 in cell proliferation assay, cell line U-87MG ATCC", "result": "> 3.16", "unit": "µM"}, {"measurement": "IC50", "setting": "[1]; Homo sapiens, U-118-MG, read-out: IC50 in cell proliferation assay, cell line U-118MG", "result": "> 3.16", "unit": "µM"}, {"measurement": "IC50", "setting": "[1]; Homo sapiens, UMUC3, read-out: IC50 in cell proliferation assay, cell line UM-UC-3", "result": 0.625, "unit": "µM"}, {"measurement": "IC50", "setting": "[1]; Hs766T, read-out: IC50 in cell proliferation assay, Hs 766T cell line", "result": "> 3.16", "unit": "µM"}, {"measurement": "IC50", "setting": "[1]; Rh30, read-out: IC50 in cell proliferation assay, cell line Rh30", "result": 0.525, "unit": "µM"}, {"measurement": "IC50", "setting": "[1]; read-out: IC50 in cell proliferation assay, 11-18 cell line (EGFR p.L858R)", "result": "> 3.16", "unit": "µM"}, {"measurement": "IC50", "setting": "[1]; read-out: IC50 in cell proliferation assay, Hs 852.T cell line", "result": 5.37, "unit": "µM"}, {"measurement": "IC50", "setting": "[1]; read-out: IC50 in cell proliferation assay, JAR cell line", "result": 2.99, "unit": "µM"}, {"measurement": "IC50", "setting": "[1]; read-out: IC50 in cell proliferation assay, cell line 5637", "result": "> 3.16", "unit": "µM"}, {"measurement": "IC50", "setting": "[1]; read-out: IC50 in cell proliferation assay, cell line A-388", "result": "> 3.16", "unit": "µM"}, {"measurement": "IC50", "setting": "[1]; read-out: IC50 in cell proliferation assay, cell line DB", "result": "> 3.16", "unit": "µM"}, {"measurement": "IC50", "setting": "[1]; read-out: IC50 in cell proliferation assay, cell line DEL (NPM1-ALK)", "result": 3.51, "unit": "µM"}, {"measurement": "IC50", "setting": "[1]; read-out: IC50 in cell proliferation assay, cell line ES-2 (BRAF p.V600E)", "result": "> 3.16", "unit": "µM"}, {"measurement": "IC50", "setting": "[1]; read-out: IC50 in cell proliferation assay, cell line PA-1", "result": 2.15, "unit": "µM"}, {"measurement": "IC50", "setting": "[1]; read-out: IC50 in cell proliferation assay, cell line PC-3", "result": "> 3.16", "unit": "µM"}, {"measurement": "IC50", "setting": "[1]; read-out: IC50 in cell proliferation assay, cell line RD", "result": "> 3.16", "unit": "µM"}, {"measurement": "IC50", "setting": "[1]; read-out: IC50 in cell proliferation assay, cell line RKO (BRAF p.V600E)", "result": "> 3.16", "unit": "µM"}, {"measurement": "IC50", "setting": "[1]; read-out: IC50 in cell proliferation assay, cell line RL", "result": "> 3.16", "unit": "µM"}, {"measurement": "IC50", "setting": "[1]; read-out: IC50 in cell proliferation assay, cell line RT-4 (FGFR3-TACC3)", "result": 0.014, "unit": "µM"}, {"measurement": "IC50", "setting": "[1]; read-out: IC50 in cell proliferation assay, cell line SR (NPM1-ALK)", "result": "> 3.16", "unit": "µM"}, {"measurement": "IC50", "setting": "[1]; read-out: IC50 in cell proliferation assay, cell line T24", "result": "> 3.16", "unit": "µM"}, {"measurement": "IC50", "setting": "[1]; read-out: IC50 in cell proliferation assay, cell line TT (RET p.C634W)", "result": "> 3.16", "unit": "µM"}, {"measurement": "IC50", "setting": "[1]; read-out: IC50 in cell proliferation assay, cell line VA-ES-BJ", "result": "> 3.16", "unit": "µM"}, {"measurement": "IC50", "setting": "[2]", "result": "> 3.16", "unit": "µM"}]}
